The text below walks through data of PMC9658812, “New Pyrimidine-5-Carbonitriles as COX-2 Inhibitors: Design, Synthesis, Anticancer Screening, Molecular Docking, and In Silico ADME Profile Studies” (Molecules, 2022).

The structures appear in SMILES notation. Where “and” joins values, the source holds several entries; their conditions need not be identical. Identical values can stand only once. Like-named read-outs stand apart in the source and are kept apart here.

Series [1] relates to HeLa cell lines. More on the design: method as in doi:10.1007/s00044-012-0051-9. Particulars: anticancer activity in vitro; cited from earlier work.
For series [2], the system named is COX-2. The following applies: cited from earlier work.
Series [3] deals with MDA-MB-231 breast cancer cell line. More on the design: method as in PMID 28486908. Particulars: cited from earlier work.
Series [4] relates to MCF-7. Particulars: breast cancer cell line; cited from earlier work.
Series [5] relates to WI-38 cells (normal cell derived from lung tissue). The series is described as follows: Cytotoxicity on non-tumorigenic WI-38 cell line. The following applies: Homo sapiens, WI-38, read-out: WI-38 IC50.
Protocol: (§1) Breast carcinoma (MCF-7), renal cell carcinoma (A498), lung cancer (A549), and liver carcinoma (HepG2) cell lines, in addition to non-tumorigenic WI-38 cell lines, were collected from the American Type Culture Collection. The cells were grown in DMEM (Invitrogen/Life Technologies) containing 1% penicillin-streptomycin, 10 µg/mL of insulin (Sigma), and 10% FBS (Hyclone).
(§2) To check the possible cellular toxicity, synthesized compounds were subjected to the MTT [3-(4,5-dimethylthiazol-2-yl)-2,5-diphenyltetrazolium bromide] assay against the MCF7, A549, A498, and HepG2 cell lines. […] Later, 2.0–3.0 mL of Trypsin EDTA solution was added into the flask containing the cell layers for 5–15 min to disperse the cell layer, which was observed through an inverted microscope. By gently pipetting, aspirated cells were added into a 6.0–8.0 mL growth medium. […] An amount of 20 μL of a 5-mg/mL MTT solution was applied after a 24-h drug-treatment period, and it was incubated for 4 h. To dissolve the produced purple formazan, each well received 100 μL of dimethyl sulfoxide (DMSO).
The subject of series [6] is MCF-7 cells. Kind of series: Apoptosis determination by Annexin-V assay. The series is classed as cell-based. Particulars: MCF-7, IC50 concentration. As for the experimental part: A biparametric cytofluorimetric analysis was performed using the Annexin-V assay to verify the ability of compound 5d at its IC50 concentration to trigger apoptosis. When compared to the control, compound 5d increased the proportion of early and late apoptotic cells in MCF-7 cells by nearly 13- and 60-fold, respectively, when compared to control cells, which had 0.53% and 0.25% early and late apoptotic cells, respectively.
The MCF-7 cell culture was treated with an IC50 of compound 5d for 48 h. The cancer cells were then suspended in PBS, centrifuged, and preserved in 99% ethanol (ice-cold). Cells suspended in ethanol were centrifuged for 5 min before being suspended in PBS and re-centrifuged once again. The supernatant was decanted, and the cells were stained at 37 °C with annexin V fluorescein isothiocyanate and PI using the apoptosis detection kit (BD Biosciences, San Jose, CA, USA) following the manufacturer’s instructions. A flow cytometer was used to examine the binding of annexin V-FITC and PI. The FACS Calibur was used to assess the cells, and Phoenix Flow Systems and Verity Software House were employed to calculate their distributions.

In series [7] the test system is MCF-7 cells. The series is described as follows: Cell cycle analysis by flow cytometry (PI). The series is classed as cell-based. As for the experimental part:
These findings imply that compound 5d’s cytotoxicity was proven by the arrest of cell growth at the G2/M phase.
Compound 5d was applied to MCF-7 cell culture for 48 h at its IC50 concentration. Briefly, cells were rinsed twice with phosphate buffer saline (PBS) (ice-cold) and then centrifuged and/or fixed in 70% (v/v) ethanol (ice-cold). The solution was rinsed with PBS, suspended with RNase (0.1 mg/mL), stained with propidium iodide (PI) ([…]), and analyzed via flow cytometry utilizing the FACS Calibur (Becton Dickinson, Franklin Lakes, NJ, USA). Through Cell-Quest software (Becton Dickinson), cell cycle distributions were calculated.
(Flow cytometry measures light scatter and fluorescence of single cells or particles in a stream.)

Series [8] relates to MCF7 cells (breast carcinoma). The series is described as follows: MTT cytotoxicity assay, MCF7. (In general: Tetrazolium dyes change colour on reduction, which living cells bring about.)
Protocol: as §1, §2
In series [9] the test system is HepG2 cells (liver carcinoma). Kind of series: MTT cytotoxicity assay, HepG2.
Protocol: as §1, §2
Series [10] has as its system A549 cells (non-small-cell lung cancer). The series is described as follows: MTT cytotoxicity assay, A549.
Protocol: as §1, §2
Series [11] deals with A498 cells (renal carcinoma). Kind of series: MTT cytotoxicity assay, A498.
Protocol: as §1, §2
Series [12] has as its target T1, human COX-2 (Homo sapiens, UniProt P35354).
T1 construct: purchased Biovision, Zurich, Switzerland
T1 sequence (P35354 18-604): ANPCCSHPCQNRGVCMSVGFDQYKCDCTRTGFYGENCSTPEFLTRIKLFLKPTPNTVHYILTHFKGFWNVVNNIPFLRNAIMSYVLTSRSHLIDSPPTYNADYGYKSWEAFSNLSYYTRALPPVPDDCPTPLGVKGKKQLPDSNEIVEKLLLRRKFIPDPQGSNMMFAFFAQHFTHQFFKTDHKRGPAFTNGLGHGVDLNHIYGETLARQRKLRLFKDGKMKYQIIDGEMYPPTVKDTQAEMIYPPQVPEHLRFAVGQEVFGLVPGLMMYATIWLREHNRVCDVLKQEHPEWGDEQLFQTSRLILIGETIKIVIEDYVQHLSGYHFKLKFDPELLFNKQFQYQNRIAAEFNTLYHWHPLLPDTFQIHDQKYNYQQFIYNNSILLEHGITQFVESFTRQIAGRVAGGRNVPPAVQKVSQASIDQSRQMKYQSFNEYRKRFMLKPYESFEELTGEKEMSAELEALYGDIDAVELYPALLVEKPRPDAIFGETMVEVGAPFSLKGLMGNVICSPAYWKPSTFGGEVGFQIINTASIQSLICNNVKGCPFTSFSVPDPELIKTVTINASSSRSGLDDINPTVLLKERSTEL
Kind of series: COX-2 inhibition assay (fluorometric inhibitor screening kit). The series is classed as biochemical. From the text: Fluorometric inhibitor screening kits (Biovision, Zurich, Switzerland) were utilized for the COX-2 enzyme inhibition test, as described before.

The test system of series [13] is gastric MGC-803 cancer cells. The arrangement: method as in PMID 25610955, PMID 25180925. Particulars: cited from earlier work.
[14] abbreviates: MCF-7, compound at its IC50 concentration, 48 h.

In general, IC50 refers to the midpoint of a concentration-inhibition curve. As a reminder, the melting point is the temperature of the solid-liquid transition. Usually inhibition stands for the share of the control response that was lost under treatment.

As to `COc1ccc(-c2nc(Nc3ccc(S(N)(=O)=O)cc3)n3c(C)nnc3c2C#N)cc1OC` [II], the IC50 in [1] was 39 nM.
As for `CS(=O)(=O)c1ccc(C2=C(c3ccccc3)C(=O)OC2)cc1` [rofecoxib], the half-inhibitory concentration (IC50) in series [2] is 292 nM.
For the compound `COc1ccc(-c2nc(N3N=C(c4ccc(F)cc4)CCC3=O)n(C)c(=O)c2C#N)cc1` [Compound V], the values for the IC50 in series [3] and in series [4] were 3430 nM and 2560 nM, respectively.
`COc1ccc(-c2nc(NS(=O)(=O)c3ccc(C(F)(F)F)cc3)nc(OC)c2C#N)cc1` [Compound 5d, N-(5-Cyano-4-methoxy-6-(4-methoxyphenyl)pyrimidin-2-yl)-4-(trifluoromethyl)benzene sulfonamide]: the melting point lay within 291 to 293 °C. The 50% inhibitory concentration (IC50) in series [5] worked out at 91290 ± 470 nM. Besides, in [6], the “increase of proportion of early apoptotic cells versus control” value is approximately 13 fold, the “increase of proportion of late apoptotic cells versus control” value is listed as approximately 60 fold and the “proportion of necrosis versus control” value is listed as “three-fold”. In series [6] (48 h), the “Apoptosis Early” value was 6.78 ± 0.25%, the “Apoptosis Late” value was 14.96 ± 1.10% and the Necrosis is recorded as 2.83 ± 0.47%. Further, in [7] (MCF-7, IC50 concentration), the “accumulation of cell population in G2/M phase compared to control” value is given as 5 times and the “accumulation of cell population in sub-G1 phase compared to control” value amounted to 16 times. In [7] (setting [14]), the “%G0-G1” value stood at 24.39 ± 3.01 %; the “%G2/M” value is 58.37 ± 0.52 %; the “%Pre-G1” value is 26.16 ± 1.53%; the “%S” value was 16.23% and 16.23 ± 1.23 %. In addition, the half-inhibitory concentration (IC50) in series [8] (Homo sapiens, MCF7, 24 h, read-out: Cytotoxicity IC50 MCF7) came to 1 ± 0.03 nM. Further, the “fold more cytotoxic than doxorubicin, MCF7” value in [8] (versus doxorubicin) is listed as “about 9 fold”. The IC50 in series [9] (Homo sapiens, HepG2, 24 h, read-out: Cytotoxicity IC50 HepG2) came to 9 ± 0.34 nM. Also, the “fold more cytotoxic than doxorubicin, HepG2” value in [9] (versus doxorubicin) is approximately 2.8 fold. In addition, the IC50 in [10] (Homo sapiens, A549, 24 h, read-out: Cytotoxicity IC50 A549) came to 1 ± 0.05 nM. The “fold more cytotoxic than doxorubicin, A549” value in [10] (versus doxorubicin) is given as approximately 13 fold. Further, the IC50 in [11] (Homo sapiens, A498, 24 h, read-out: Cytotoxicity IC50 A498) worked out at 2 ± 0.08 nM. The “fold more cytotoxic than doxorubicin, A498” value in series [11] (versus doxorubicin) is recorded as approximately 3.5 fold. Also, the inhibition at 10 µM in [12] (10^−5 M, mean of three experiments ± SD, read-out: COX-2 Inhibition (%)) came out at 41.8 ± 0.91%. For the same compound, the inhibition at 1 µM in [12] (10^−6 M, mean of three experiments ± SD, read-out: COX-2 Inhibition (%)) is 35.9 ± 0.72%. Besides, the inhibition at 0.1 µM in [12] (10^−7 M, mean of three experiments ± SD, read-out: COX-2 Inhibition (%)) amounted to 23.1 ± 0.25%. Further, in [12] (10^−8 M, mean of three experiments ± SD, read-out: COX-2 Inhibition (%)), the inhibition at 0.01 µM amounted to 76.1 ± 1.05%. The inhibition at 0.001 µM in series [12] (10^−9 M, mean of three experiments ± SD, read-out: COX-2 Inhibition (%)) was 60.7 ± 1.09%. For the same compound, in series [12] (human COX-2 assay kit, three experiments), 160 ± 10 nM corresponded to half-maximal inhibition (IC50).
Turning to `C#CCSc1nc(NC(N)=S)c(C#N)c(-c2cc(OC)c(OC)c(OC)c2)n1` [III], the 50% inhibitory concentration (IC50) in series [13] was 4010 nM.
As for `NS(=O)(=O)c1ccc(-c2nc(Cl)cc(NCc3cccs3)n2)cc1` [VII], in [2] (COX-2 inhibitor potency), the IC50 was 12.7 nM.
